Consider 6 compounds from patent US12679878B2, “CRF2 receptor agonists and their use in therapy” (SANOFI, priority 2020, dated 2026).

Broadly, the EC50 is the concentration that produces a half-maximal response.

Like-named read-outs stand apart in the source and are kept apart here. Starred links: 1 amine or outer side, 2 acyl side, 3 side chain; linkers in the order of their positions; H or OH if unused. Non-standard residues stand in square brackets, D forms with d. Residues, ends and D or L forms follow the SMILES beside them. Groups on a side chain read outwards from the residue. *: point of attachment. C18 diacid = O=C(O)CCCCCCCCCCCCCCCCC(=O)*; γGlu = O=C(O)[C@H](CCC(=O)[*:2])N[*:1]; AEEA = NCCOCCOCC(=O)O; Aib = CC(C)(N)C(=O)O

The target in this experiment is T1, human CRF2α receptor (Homo sapiens, UniProt Q13324).
T1 construct: expressed in transfected cells; host or cells: TeloHEAC
T1 sequence (Q13324 1-411): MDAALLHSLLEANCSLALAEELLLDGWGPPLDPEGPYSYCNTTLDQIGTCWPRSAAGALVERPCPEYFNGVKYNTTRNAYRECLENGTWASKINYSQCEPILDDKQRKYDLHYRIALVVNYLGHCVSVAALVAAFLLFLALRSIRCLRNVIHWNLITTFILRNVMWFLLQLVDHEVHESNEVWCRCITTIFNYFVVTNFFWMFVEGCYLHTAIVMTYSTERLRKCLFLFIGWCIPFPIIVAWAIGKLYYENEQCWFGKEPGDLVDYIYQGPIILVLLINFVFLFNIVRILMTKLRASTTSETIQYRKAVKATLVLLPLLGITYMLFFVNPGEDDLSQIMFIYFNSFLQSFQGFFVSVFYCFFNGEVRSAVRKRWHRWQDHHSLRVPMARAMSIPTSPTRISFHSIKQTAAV
The experiment can be described thus: cAMP agonism at human CRF2 α receptor in TeloHEAC cells (Example 7). It is filed as cell-based. Particulars: cAMP HTRF, TeloHEAC cells stably expressing human CRF2 α. The gist of the method:
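Cryopreserved cells are thawed, washed and resuspended in IBMX-containing (2 mM) HEPES-buffered HBSS with or without 0.1% HSA. Compound incubation runs 30 min at room temperature with 2000 cells per well, then cAMP is measured by time-resolved FRET. Potency is expressed as EC50, efficacy relative to urocortin 2 at 1000 nM.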
(In general: In TR-FRET formats the signal depends on donor and acceptor labels being close together.)

Where [1] appears, read: 0% HSA, read-out: EC50 [nM], 0% HSA.
Setting [2] is: 0.1% HSA, read-out: EC50 [nM], 0.1% HSA.

As for `CC[C@H](C)[C@H](N)C(=O)N[C@H](C(=O)N[C@@H](CC(C)C)C(=O)N[C@@H](CO)C(=O)N[C@@H](CC(C)C)C(=O)N[C@@H](CC(=O)O)C(=O)N[C@H](C(=O)N1CCC[C@H]1C(=O)N[C@H](C(=O)N[C@@H](CCCCN)C(=O)N[C@@H](CC(C)C)C(=O)N[C@@H](CCCCNC(=O)COCCOCCNC(=O)COCCOCCNC(=O)CC[C@H](NC(=O)CCCCCCCCCCCCCCCCC(=O)O)C(=O)O)C(=O)N[C@@H](CCC(N)=O)C(=O)N[C@H](C(=O)N[C@@H](CC(C)C)C(=O)N[C@@H](CC(C)C)C(=O)N[C@@H](CCC(=O)O)C(=O)N[C@@H](CCC(N)=O)C(=O)N[C@@H](CCC(=O)O)C(=O)N[C@@H](CCCNC(=N)N)C(=O)N[C@@H](CCC(N)=O)C(=O)N[C@@H](CCCCN)C(=O)N[C@@H](CCCCN)C(=O)N[C@@H](CCC(N)=O)C(=O)N[C@@H](CCCNC(=N)N)C(=O)N[C@@H](CCC(=O)O)C(=O)N[C@@H](CCC(N)=O)C(=O)N[C@@H](C)C(=O)N[C@@H](CCC(=O)O)C(=O)N[C@H](C(=O)N[C@@H](CC(N)=O)C(=O)NC(C)(C)C(=O)N[C@@H](CCC(N)=O)C(=O)N[C@H](C(=O)N[C@@H](CC(C)C)C(=O)N[C@@H](C)C(=O)N[C@@H](CCC(N)=O)C(=O)N[C@H](C(N)=O)C(C)C)[C@@H](C)CC)[C@@H](C)O)[C@@H](C)CC)[C@@H](C)O)C(C)C)C(C)C` [compound 78] (H-IVLSLDVPTKLK([AEEA-AEEA-γGlu-C18 diacid])QILLEQERQKKQREQAETN[Aib]QILAQV-NH2), the EC50 under setting [1] was determined as 10.6 nM.
Consider `CC[C@H](C)[C@H](N)C(=O)N[C@H](C(=O)N[C@@H](CC(C)C)C(=O)N[C@@H](CO)C(=O)N[C@@H](CC(C)C)C(=O)N[C@@H](CC(=O)O)C(=O)N[C@H](C(=O)N1CCC[C@H]1C(=O)N[C@H](C(=O)N[C@@H](CCCCN)C(=O)N[C@@H](CC(C)C)C(=O)N[C@@H](CCCCNC(=O)COCCOCCNC(=O)COCCOCCNC(=O)CC[C@H](NC(=O)CCCCCCCCCCCCCCCCC(=O)O)C(=O)O)C(=O)N[C@@H](CCC(N)=O)C(=O)N[C@H](C(=O)N[C@@H](CC(C)C)C(=O)N[C@@H](CC(C)C)C(=O)N[C@@H](CCCCN)C(=O)N[C@@H](CCC(N)=O)C(=O)N[C@@H](CCC(=O)O)C(=O)N[C@@H](CCCNC(=N)N)C(=O)N[C@@H](CCC(N)=O)C(=O)N[C@@H](CCCCN)C(=O)N[C@@H](CCCCN)C(=O)NC(C)(C)C(=O)N[C@@H](CCCNC(=N)N)C(=O)N[C@@H](CCC(=O)O)C(=O)N[C@@H](CCC(N)=O)C(=O)N[C@@H](C)C(=O)N[C@@H](CCC(=O)O)C(=O)N[C@H](C(=O)N[C@@H](CC(N)=O)C(=O)N[C@H](C(=O)N[C@@H](CCCNC(=N)N)C(=O)N[C@H](C(=O)N[C@@H](CC(C)C)C(=O)N[C@@H](CCC(=O)O)C(=O)N[C@@H](CCCNC(=N)N)C(=O)N[C@H](C(N)=O)C(C)C)[C@@H](C)CC)C(C)C)[C@@H](C)O)[C@@H](C)CC)[C@@H](C)O)C(C)C)C(C)C` [compound 82] (H-IVLSLDVPTKLK([AEEA-AEEA-γGlu-C18 diacid])QILLKQERQKK[Aib]REQAETNVRILERV-NH2), for which the EC50 under setting [1] turned out to be 10.1 nM.
Consider `CC[C@H](C)[C@H](N)C(=O)N[C@H](C(=O)N[C@@H](CC(C)C)C(=O)N[C@@H](CO)C(=O)N[C@@H](CC(C)C)C(=O)N[C@@H](CC(=O)O)C(=O)N[C@H](C(=O)N1CCC[C@H]1C(=O)N[C@H](C(=O)N[C@@H](CCCCN)C(=O)N[C@@H](CC(C)C)C(=O)N[C@@H](CCCCNC(=O)COCCOCCNC(=O)COCCOCCNC(=O)CC[C@H](NC(=O)CCCCCCCCCCCCCCCCC(=O)O)C(=O)O)C(=O)N[C@@H](CCC(N)=O)C(=O)N[C@@H](CCCCN)C(=O)N[C@@H](CC(C)C)C(=O)N[C@@H](CC(C)C)C(=O)N[C@@H](CCC(=O)O)C(=O)N[C@@H](CCC(N)=O)C(=O)N[C@@H](CCC(=O)O)C(=O)N[C@@H](CCCCN)C(=O)N[C@@H](CCC(N)=O)C(=O)N[C@@H](CCCCN)C(=O)N[C@@H](CCCCN)C(=O)N[C@@H](CCC(N)=O)C(=O)N[C@@H](CCCNC(=N)N)C(=O)N[C@@H](CCC(=O)O)C(=O)N[C@@H](CCC(N)=O)C(=O)N[C@@H](C)C(=O)N[C@@H](CCC(=O)O)C(=O)N[C@H](C(=O)N[C@@H](CC(N)=O)C(=O)N[C@@H](CCCCN)C(=O)N[C@@H](CCC(N)=O)C(=O)N[C@H](C(=O)N[C@@H](CC(C)C)C(=O)N[C@@H](C)C(=O)N[C@@H](CCC(N)=O)C(=O)N[C@H](C(N)=O)C(C)C)[C@@H](C)CC)[C@@H](C)O)[C@@H](C)CC)C(C)C)C(C)C` [compound 84] (H-IVLSLDVPIKLK([AEEA-AEEA-γGlu-C18 diacid])QKLLEQEKQKKQREQAETNKQILAQV-NH2; N-terminus assumed), for which the concentration for a half-maximal effect (EC50) was 1.85 nM under setting [1] and 61.7 nM under setting [2].
The corresponding values for `CC[C@H](C)[C@H](N)C(=O)N[C@H](C(=O)N[C@@H](CC(C)C)C(=O)N[C@@H](CO)C(=O)N[C@@H](CC(C)C)C(=O)N[C@@H](CC(=O)O)C(=O)N[C@H](C(=O)N1CCC[C@H]1C(=O)N[C@H](C(=O)N[C@@H](CCCCN)C(=O)N[C@@H](CC(C)C)C(=O)N[C@@H](CCCCNC(=O)COCCOCCNC(=O)COCCOCCNC(=O)CC[C@H](NC(=O)CCCCCCCCCCCCCCCCC(=O)O)C(=O)O)C(=O)N[C@@H](CCC(N)=O)C(=O)N[C@H](C(=O)N[C@@H](CC(C)C)C(=O)N[C@@H](CC(C)C)C(=O)N[C@@H](CCCCN)C(=O)N[C@@H](CCC(N)=O)C(=O)N[C@@H](CCC(=O)O)C(=O)N[C@@H](CCCNC(=N)N)C(=O)N[C@@H](CCC(N)=O)C(=O)N[C@@H](CCCCN)C(=O)N[C@@H](CCCCN)C(=O)N[C@@H](CCC(N)=O)C(=O)N[C@@H](CCCNC(=N)N)C(=O)N[C@@H](CCC(=O)O)C(=O)N[C@@H](CCCCN)C(=O)N[C@@H](C)C(=O)N[C@@H](CCCCN)C(=O)N[C@H](C(=O)N[C@@H](CC(N)=O)C(=O)N[C@H](C(=O)N[C@@H](CCC(N)=O)C(=O)N[C@H](C(=O)N[C@@H](CC(C)C)C(=O)N[C@@H](C)C(=O)N[C@@H](CCC(N)=O)C(=O)N[C@H](C(N)=O)C(C)C)[C@@H](C)CC)C(C)C)[C@@H](C)O)[C@@H](C)CC)[C@@H](C)CC)C(C)C)C(C)C` [compound 90] (H-IVLSLDVPIKLK([AEEA-AEEA-γGlu-C18 diacid])QILLKQERQKKQREKAKTNVQILAQV-NH2; N-terminus assumed) are 3.91 nM and 92.6 nM.
For `CC[C@H](C)[C@H](N)C(=O)N[C@H](C(=O)N[C@@H](CC(C)C)C(=O)N[C@@H](CO)C(=O)N[C@@H](CC(C)C)C(=O)N[C@@H](CC(=O)O)C(=O)N[C@H](C(=O)N1CCC[C@H]1C(=O)N[C@H](C(=O)N[C@@H](CCCCN)C(=O)N[C@@H](CC(C)C)C(=O)N[C@@H](CCCCNC(=O)COCCOCCNC(=O)COCCOCCNC(=O)CC[C@H](NC(=O)CCCCCCCCCCCCCCCCC(=O)O)C(=O)O)C(=O)N[C@@H](CCC(N)=O)C(=O)N[C@@H](CCCCN)C(=O)N[C@@H](CC(C)C)C(=O)N[C@@H](CC(C)C)C(=O)N[C@@H](CCCCN)C(=O)N[C@@H](CCC(N)=O)C(=O)N[C@@H](CCC(=O)O)C(=O)N[C@@H](CCCNC(=N)N)C(=O)N[C@@H](CCC(N)=O)C(=O)N[C@@H](CCCCN)C(=O)N[C@@H](CCCCN)C(=O)N[C@@H](CCC(N)=O)C(=O)N[C@@H](CCCNC(=N)N)C(=O)N[C@@H](CCC(=O)O)C(=O)N[C@@H](CCCCN)C(=O)N[C@@H](C)C(=O)N[C@@H](CCCCN)C(=O)N[C@H](C(=O)N[C@@H](CC(N)=O)C(=O)NC(C)(C)C(=O)N[C@@H](CCC(N)=O)C(=O)N[C@H](C(=O)N[C@@H](CC(C)C)C(=O)N[C@@H](C)C(=O)N[C@@H](CCC(N)=O)C(=O)N[C@H](C(N)=O)C(C)C)[C@@H](C)CC)[C@@H](C)O)[C@@H](C)CC)C(C)C)C(C)C` [compound 91] (H-IVLSLDVPIKLK([AEEA-AEEA-γGlu-C18 diacid])QKLLKQERQKKQREKAKTN[Aib]QILAQV-NH2), the EC50 under setting [1] came out at 14.3 nM.
For `CC[C@H](C)[C@H](N)C(=O)N[C@H](C(=O)N[C@@H](CC(C)C)C(=O)N[C@@H](CO)C(=O)N[C@@H](CC(C)C)C(=O)N[C@@H](CC(=O)O)C(=O)N[C@H](C(=O)N1CCC[C@H]1C(=O)N[C@H](C(=O)N[C@@H](CCCCN)C(=O)N[C@@H](CC(C)C)C(=O)N[C@@H](CCCCNC(=O)COCCOCCNC(=O)COCCOCCNC(=O)CC[C@H](NC(=O)CCCCCCCCCCCCCCCCC(=O)O)C(=O)O)C(=O)N[C@@H](CCC(N)=O)C(=O)N[C@@H](CCCCN)C(=O)N[C@@H](CC(C)C)C(=O)N[C@@H](CC(C)C)C(=O)N[C@@H](CCC(=O)O)C(=O)N[C@@H](CCC(N)=O)C(=O)N[C@@H](CCC(=O)O)C(=O)N[C@@H](CCCNC(=N)N)C(=O)N[C@@H](CCC(N)=O)C(=O)N[C@@H](CCCCN)C(=O)N[C@@H](CCCCN)C(=O)N[C@@H](CCC(N)=O)C(=O)N[C@@H](CCCNC(=N)N)C(=O)N[C@@H](CCC(=O)O)C(=O)N[C@@H](CCC(N)=O)C(=O)N[C@@H](C)C(=O)N[C@@H](CCC(=O)O)C(=O)N[C@H](C(=O)N[C@@H](CC(N)=O)C(=O)NC(C)(C)C(=O)N[C@@H](CCC(N)=O)C(=O)N[C@H](C(=O)N[C@@H](CC(C)C)C(=O)N[C@@H](C)C(=O)N[C@@H](CCC(N)=O)C(=O)N[C@H](C(N)=O)C(C)C)[C@@H](C)CC)[C@@H](C)O)[C@@H](C)CC)C(C)C)C(C)C` [compound 92] (H-IVLSLDVPIKLK([AEEA-AEEA-γGlu-C18 diacid])QKLLEQERQKKQREQAETN[Aib]QILAQV-NH2; N-terminus assumed), the half-maximal effective concentration (EC50) under setting [1] was 9.17 nM.
